Results taken from US20140190496A1, “METHODS AND DEVICES FOR COMPOUND DELIVERY” (priority 2012, published 2014).
“And” between values parts separate entries of the source, which are not always exact repeats. Equal values may be shown once.

Experiments:
[1] = Aerosol particle size from test airway apparatus with stainless steel foil heater element; format: physicochemical; details: dose 1 mg
Text: A hole to deposite drug (2706a) is provided and foil is shown (2708a). Brass contacts (2710a) are provided.

[2] = Aerosol particle size from test apparatus with wire coil heater element; format: physicochemical; details: stainless steel coil heater, 3.5 coils; air flow 2 Liters/min; dose 1 mg; 2.5 Amps; 1 second
[3] = Particle size diameter of aerosols from ENT-100-A/B/C devices with wire coil heater elements and bypass inlets; format: physicochemical; details: 1 sec, listed as propylene glycol formulation
Text: This example describes the particle size diameters (PSD) of aerosols generated from a device comprising a heater element comprising a wire coil. […] The “A Coil” comprises a stretch of coil followed by a straight lead on either end of the coil which connects to the brass contacts. The “B Coil” comprises a stretch of coil, wherein the coil itself connects to the brass contacts.

[4] = Particle size diameter, ENT-100-D, heater element leads lengthened, with or without MARK V adder; format: physicochemical; details: foam replaced w/SS screen, flow 2.04-2.06 LPM, 2 amps
Text: This example describes the particle size diameters (PSD) of aerosols generated from a heater element as described in FIG. 36. The length of the leads in this example is 0.70 inches (about 17.78 mm). The heater element is inserted into the device depicted in FIG. 31D. […] In this example, the liquid formulation comprises propylene glycol and it wicks onto the ends of the wire of the heater element and onto the brass contacts.

[5] = Effect of gravity (device rotation) on particle size diameter, ENT-100-D; format: physicochemical; details: ENT-100-D loaded with 2 mg; device rotated 90 degrees in all dimensions from baseline
Text: The device is rotated 90 degrees in all dimensions from a stable baseline position. […] As a result, the device produces particles of a consistent size regardless of the orientation in space of the device.

[6] = cited from earlier work

SMILES	Particle Size Diameter (microns) ([1]; heater element thickness 0.0005 inches, air flow 1 Liters/min, 6 Amps, heating 1 second)	Particle Size Diameter (microns) ([1]; heater element thickness 0.0005 inches, air flow 1 Liters/min, 8 Amps, heating 0.5 seconds)	Particle Size Diameter (microns) ([1]; heater element thickness 0.001 inches, air flow 1 Liters/min, 8 Amps, heating 0.7 seconds)	Particle Size Diameter (microns) ([1]; heater element thickness 0.001 inches, air flow 3 Liters/min, 7 Amps, heating 1 second)	Particle Size Diameter (microns) ([1]; heater element thickness 0.001 inches, air flow 3 Liters/min, 10 Amps, heating 1 second)	Particle Size Diameter (microns) ([1]; heater element thickness 0.001 inches, air flow 6 Liters/min, 10 Amps, heating 1 second)	Particle Size Diameter (microns) ([1]; heater element thickness 0.001 inches, air flow 12 Liters/min, 10 Amps, heating 1 second)	Particle Size Diameter (microns) [2]	PSD (microns) ([3]; B Coil, dose 2 mg, 2.0 amps, heater element moved aft, B configuration (total flow 12 LPM), flow 1.5-1.60 LPM, flow 1.5 LPM)	PSD (microns) ([3]; B Coil, dose 2 mg, 2.0 amps, heater element moved aft, B configuration (total flow 12 LPM), flow 1.5-1.60 LPM, flow 1.60 LPM)	PSD (microns) ([3]; ENT-100-B with B Coil, dose 2 mg, 2.0 amps, bypass untaped, total flow ~8.5 LPM, flow 1.5-1.52 LPM, flow 1.5 LPM)	PSD (microns) ([3]; ENT-100-B with B Coil, dose 2 mg, 2.0 amps, with stainless steel (SS) screen to even flow, flow 1.55-1.56 LPM, flow 1.56 LPM)	PSD (microns) ([3]; ENT-100-C, new heater element .032 ID 0.100 stretch, 2 mg dose, flow 2.04 LPM, 2.6 amps)	PSD (microns) ([4]; flow 2.04 LPM)	PSD (microns) ([4]; flow 2.05 LPM)	PSD (microns) ([4]; flow 2.06 LPM)	particle size diameter at each rotation [5]	time to achieve peak increments of plasma nicotine concentration ([6]; smoking a cigarette) [min]	peak increments of plasma nicotine concentration ([6]; smoking a single cigarette) [ng/mL]
CC(O)CO (stereo not shown) [PG, propylene glycol]	2.1-3 microns	2	1	1.8 microns and 2 microns and 1.5-1.8 microns and 1.4-1.8 microns	1 microns and 0.9 microns	0.6 microns and 0.6-0.8 microns	0.5	1.5-2.2 microns	1.7-1.8 microns	1.7-1.75 microns	1.8-1.9 microns	2.6-2.9 microns	2.0-2.5 microns and 2.0-2.2 microns and 2.1-2.3 microns and 2.1-2.2 microns	2.7-3.0 microns and 2.8-3.0 microns	2.6-2.8 microns	3.0-3.1 microns	found not to change		
CN1CCCC1c1cccnc1 (stereo not shown) [nicotine]																		≤ 10	5 to 30
